From patent publication US20250288515A1, “METHOD AND COMPOSITION FOR TREATING LUNG DISEASES” (MannKind Corporation, priority 2022, published 2025)

Experiment: Pharmacokinetic study in rats, pulmonary insufflation versus intravenous injection
Format: in vivo
Conditions: male Sprague Dawley rats, single dose 0.8 mg/kg, samples 10-240 minutes; FIG. 5
Experimental: Pharmacokinetic studies in rats with Compound I crystalline composite (XC) dry powders-Insufflation studies were performed in rats to deliver doses of dry powders of Compound I, a protein kinase antagonist. The study was performed to determine the pharmacokinetics profile of compound I dry powders made by the process as described above following pulmonary insufflation, or intravenous injection of a single dose of the composition administered in solution to male Sprague Dawley (Charles River Laboratories) adult rats, weighing between 200 g and 250 g at the time of the study. Dry powder comprising 22.1 wt % actual drug content were used and tested at 1 mg/ml in solution to deliver a dose of 0.8 mg/kg to 18 rats in each study group. Rats acclimatized and anesthetized prior to experimentation. Lung and blood samples were taken from the rats at 10, 20, 30, 120, and 240 minutes, post drug administration.

Cc1cccc(-n2ncc(C)c2-c2cc3cnccc3s2)n1 [compound I, 2 [4-methyl-1-(6-methylpyridin-2yl)-1H-pyrazol-5-yl]thieno-[3,2 c]pyridine]
Lung content of compound I after insufflation versus IV injection: higher content of compound I was detected in rat lung after insufflation versus IV injection
